Test results as given in ChEMBL document CHEMBL1201862, “PubChem BioAssay data set” (2004).
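Grown in 96-well plates, cells were treated for 48 hours with each compound at five concentrations. Insufficient inhibition: endpoint recorded as highest concentration tested. GI50 = concentration required for 50% inhibition of growth.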 Activity calls are given as the source filed them. Rule as the data show it: active = GI50 up to about 1.1 µM and inactive = higher.

What was measured:
Experiment in all cases: NCI tumour cell line growth inhibition, 48 h
KM12 = system: KM12
UACC-257 = system: UACC-257
SF-295 = system: SF-295
NCI-H226 = system: NCI-H226
UACC-62 = system: UACC-62
DU-145 = system: DU-145
NCI/ADR-RES = system: NCI/ADR-RES
786-0 = system: 786-0
NCI-H23 = system: NCI-H23
BT-549 = system: BT-549
T47D = system: T47D
LOX IMVI = system: LOX IMVI
COLO 205 = system: COLO 205
TK-10 = system: TK-10
SNB-75 = system: SNB-75
MCF7 = system: MCF7
A549 = system: A549
HL-60 = system: HL-60
HCC 2998 = system: HCC 2998

Measured: GI50

N#CC(NCCO)=C1C(=O)c2ccccc2C1=O
inactive: KM12 > 100 µM | UACC-257 > 100 µM | SF-295 > 100 µM | NCI-H226 > 100 µM | UACC-62 > 100 µM | DU-145 > 100 µM | NCI/ADR-RES > 100 µM | 786-0 > 100 µM | NCI-H23 > 100 µM | BT-549 > 100 µM | T47D > 100 µM | LOX IMVI > 100 µM | COLO 205 > 100 µM | TK-10 > 100 µM | SNB-75 > 100 µM | MCF7 > 100 µM | A549 > 100 µM | HL-60 > 100 µM

Cc1ccc(NC(=O)C(=O)C2C(=O)C3=C(CC2(C)C)NC2C=CC=CC2S3)c(C)c1 (configuration not stated)
inactive: HCC 2998 > 100 µM | KM12 > 100 µM | UACC-257 > 100 µM | SF-295 > 100 µM | NCI-H226 56.2 µM | UACC-62 > 100 µM | DU-145 > 100 µM | NCI/ADR-RES > 100 µM | 786-0 66.4 µM | NCI-H23 > 100 µM | BT-549 > 100 µM | LOX IMVI > 100 µM | COLO 205 > 100 µM | TK-10 > 100 µM | SNB-75 30.4 µM | MCF7 > 100 µM | A549 > 100 µM | HL-60 > 100 µM

CN1C(=O)c2ccccc2C(O)(c2ccccc2)C1(O)c1ccccc1 (configuration not stated)
inactive: HCC 2998 87.9 µM | KM12 > 100 µM | UACC-257 > 100 µM | SF-295 > 100 µM | NCI-H226 > 100 µM | UACC-62 64.4 µM | NCI/ADR-RES > 100 µM | 786-0 > 100 µM | NCI-H23 81.8 µM | BT-549 81.1 µM | T47D 61.2 µM | LOX IMVI > 100 µM | COLO 205 > 100 µM | TK-10 68.7 µM | SNB-75 91 µM | A549 69.5 µM

CC[C@H](CCCC[C@H]1CC[C@@H]2CC(=O)C[C@H]12)OC
inactive: HCC 2998 > 100 µM | KM12 > 100 µM | UACC-257 43.5 µM | SF-295 65.9 µM | NCI-H226 > 100 µM | UACC-62 60 µM | NCI/ADR-RES 47.4 µM | 786-0 > 100 µM | NCI-H23 35.5 µM | BT-549 36.9 µM | T47D 58.9 µM | LOX IMVI > 100 µM | COLO 205 > 100 µM | TK-10 > 100 µM | SNB-75 > 100 µM | A549 93.8 µM | HL-60 24 µM

O=C(Cl)C1=C(c2ccccc2)C1c1ccccc1 (configuration not stated)
inactive: HCC 2998 > 100 µM | KM12 > 100 µM | UACC-257 > 100 µM | SF-295 > 100 µM | NCI-H226 > 100 µM | UACC-62 > 100 µM | DU-145 > 100 µM | 786-0 > 100 µM | NCI-H23 > 100 µM | BT-549 > 100 µM | T47D > 100 µM | LOX IMVI > 100 µM | COLO 205 > 100 µM | TK-10 > 100 µM | SNB-75 > 100 µM | MCF7 > 100 µM | A549 > 100 µM | HL-60 > 100 µM

CCOC(=O)[C@H](C)OC(=O)[C@@](C)(NC(=O)c1ccccc1C(=O)OC)[C@@H]1NC=C(C(=O)OC)CS1
inactive: HCC 2998 > 100 µM | KM12 > 100 µM | UACC-257 > 100 µM | SF-295 > 100 µM | NCI-H226 > 100 µM | UACC-62 76 µM | DU-145 > 100 µM | NCI/ADR-RES > 100 µM | 786-0 > 100 µM | NCI-H23 > 100 µM | BT-549 > 100 µM | T47D 91.2 µM | COLO 205 > 100 µM | TK-10 > 100 µM | SNB-75 25.4 µM | MCF7 79.1 µM | A549 > 100 µM

O=C(O)C(C1NCCS1)N1C(=O)c2ccccc2C1=O (configuration not stated)
inactive: KM12 > 100 µM | UACC-257 > 100 µM | SF-295 > 100 µM | NCI-H226 > 100 µM | UACC-62 > 100 µM | DU-145 > 100 µM | NCI/ADR-RES > 100 µM | 786-0 > 100 µM | NCI-H23 > 100 µM | BT-549 > 100 µM | T47D > 100 µM | LOX IMVI > 100 µM | COLO 205 > 100 µM | TK-10 > 100 µM | SNB-75 > 100 µM | MCF7 > 100 µM | A549 > 100 µM | HL-60 > 100 µM

Cc1cc(Nc2ccc(NS(C)(=O)=O)cc2)c2c(ccc3[nH]ccc32)n1
inactive: KM12 10.8 µM | UACC-257 17.3 µM | SF-295 22.3 µM | NCI-H226 19.5 µM | UACC-62 15.7 µM | DU-145 18.8 µM | NCI/ADR-RES > 100 µM | 786-0 20.4 µM | NCI-H23 20.7 µM | BT-549 21.9 µM | T47D 3.5 µM | LOX IMVI 18.5 µM | COLO 205 14.3 µM | TK-10 28.6 µM | MCF7 7.4 µM | A549 33.3 µM

COc1ccc([N+](=O)[O-])c2c(NCC(O)CO)ccnc12 (configuration not stated)
inactive: HCC 2998 32.2 µM | KM12 37.8 µM | UACC-257 28.1 µM | SF-295 39.8 µM | UACC-62 22 µM | DU-145 83.9 µM | 786-0 67.6 µM | NCI-H23 18 µM | BT-549 20 µM | T47D 36.4 µM | LOX IMVI 36.1 µM | COLO 205 22.5 µM | TK-10 67.5 µM | SNB-75 47.8 µM | MCF7 29 µM | A549 35 µM | HL-60 51.1 µM

CC(C)(C)OC(=O)n1c(Cl)c(C=O)c2ccccc21
inactive: KM12 18.4 µM | UACC-257 28.8 µM | SF-295 63.2 µM | UACC-62 19.3 µM | DU-145 19.3 µM | NCI/ADR-RES 30.7 µM | 786-0 21 µM | NCI-H23 23.3 µM | BT-549 21.3 µM | T47D 30.6 µM | LOX IMVI 26.4 µM | COLO 205 56.4 µM | TK-10 25.6 µM | SNB-75 68.5 µM | A549 92.9 µM | HL-60 33.8 µM

NS(=O)(=O)c1ccc(NS(=O)(=O)c2ccc(NC(=O)N(c3ccccc3)c3ccccc3)cc2)cc1
inactive: KM12 60.5 µM | UACC-257 77.4 µM | SF-295 35.7 µM | NCI-H226 > 100 µM | UACC-62 63.4 µM | DU-145 43.3 µM | NCI/ADR-RES > 100 µM | 786-0 68.9 µM | NCI-H23 > 100 µM | BT-549 87.1 µM | T47D 48 µM | LOX IMVI 34.4 µM | COLO 205 > 100 µM | TK-10 50.4 µM | MCF7 52.7 µM | A549 > 100 µM

COc1c2occc2cc2ccc(=O)oc12 [METHOXSALEN]
inactive: HCC 2998 > 100 µM | UACC-257 > 100 µM | SF-295 > 100 µM | UACC-62 34.9 µM | DU-145 > 100 µM | 786-0 > 100 µM | NCI-H23 > 100 µM | BT-549 > 100 µM | T47D > 100 µM | LOX IMVI > 100 µM | COLO 205 > 100 µM | TK-10 > 100 µM | MCF7 > 100 µM | A549 > 100 µM | HL-60 90.2 µM
